Legend:
[1] = target: Voltage-gated inwardly rectifying potassium channel KCNH2 (Homo sapiens, UniProt Q12809)
[2] = Permeability from basolateral to apical side of the Caco-2 cell membrane; type: ADME, cell-based; conditions: human
[3] = Permeability from apical to basolateral side of the Caco-2 cell membrane; type: ADME, cell-based; conditions: human
[4] = target: hERG (KCNH2) (Homo sapiens, UniProt Q12809); assay: in vitro; conditions: HEK293 cells that express hERG
hERG (KCNH2), sequence (Q12809 whole entry): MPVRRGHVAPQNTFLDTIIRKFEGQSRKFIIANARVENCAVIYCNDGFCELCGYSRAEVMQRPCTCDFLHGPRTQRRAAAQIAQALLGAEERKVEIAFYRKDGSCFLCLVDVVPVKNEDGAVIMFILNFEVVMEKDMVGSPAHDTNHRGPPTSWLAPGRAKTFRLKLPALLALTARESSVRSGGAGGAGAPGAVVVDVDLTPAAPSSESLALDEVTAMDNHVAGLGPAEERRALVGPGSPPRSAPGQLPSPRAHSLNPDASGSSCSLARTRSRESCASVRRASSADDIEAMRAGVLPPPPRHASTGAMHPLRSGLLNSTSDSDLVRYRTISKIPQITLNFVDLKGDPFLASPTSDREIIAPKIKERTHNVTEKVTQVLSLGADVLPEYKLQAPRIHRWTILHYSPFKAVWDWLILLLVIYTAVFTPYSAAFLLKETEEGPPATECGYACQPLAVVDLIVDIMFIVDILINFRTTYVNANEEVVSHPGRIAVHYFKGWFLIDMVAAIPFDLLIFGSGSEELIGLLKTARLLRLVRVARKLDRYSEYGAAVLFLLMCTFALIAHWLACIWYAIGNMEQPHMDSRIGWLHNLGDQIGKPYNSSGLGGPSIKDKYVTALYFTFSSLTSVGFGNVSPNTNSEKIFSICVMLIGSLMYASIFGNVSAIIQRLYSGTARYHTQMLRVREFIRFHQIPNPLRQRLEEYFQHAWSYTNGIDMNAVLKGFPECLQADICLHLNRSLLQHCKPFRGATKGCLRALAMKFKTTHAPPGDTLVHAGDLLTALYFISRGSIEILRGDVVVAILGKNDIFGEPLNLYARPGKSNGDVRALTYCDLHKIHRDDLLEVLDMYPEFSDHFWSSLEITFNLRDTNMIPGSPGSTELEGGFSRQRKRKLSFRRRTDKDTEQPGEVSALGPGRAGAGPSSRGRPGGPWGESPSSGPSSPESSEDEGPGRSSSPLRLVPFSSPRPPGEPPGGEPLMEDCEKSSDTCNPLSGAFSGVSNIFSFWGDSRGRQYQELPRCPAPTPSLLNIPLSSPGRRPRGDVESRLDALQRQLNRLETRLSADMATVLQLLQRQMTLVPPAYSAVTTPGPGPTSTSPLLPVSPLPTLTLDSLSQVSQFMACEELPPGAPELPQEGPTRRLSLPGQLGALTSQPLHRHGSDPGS

Voltage-gated inwardly rectifying potassium channel KCNH2, sequence (Q12809 whole entry): as above

Compound	Ki [1]	further results
CC1(C)C2=C3C=C4C5=[N+](CCC4OC3CCN2c2ccc(CCCCCC(=O)NCCCCCCN(CCOc3ccc(NS(C)(=O)=O)cc3)CCc3ccc(NS(C)(=O)=O)cc3)cc21)c1ccc(S(=O)(=O)[O-])cc1C5(C)C (configuration not stated)	10 nM	
CC1(C)C2=C3C=C4C5=[N+](CCC4OC3CCN2c2ccc(CC(=O)NCCCCCN(CCOc3ccc(NS(C)(=O)=O)cc3)CCc3ccc(NS(C)(=O)=O)cc3)cc21)c1ccc(S(=O)(=O)[O-])cc1C5(C)C (configuration not stated)	13 nM	
CS(=O)(=O)Nc1ccc(CCN(CCOc2ccc(NS(C)(=O)=O)cc2)c2ccc([N+](=O)[O-])c3nonc23)cc1		Papp B→A [2]: 18 ×10⁻⁶ cm/s; Papp A→B [3]: 3.7 ×10⁻⁶ cm/s
CC1(C)C2=C3C=C4C5=[N+](CCC4OC3CCN2c2ccc(CC(=O)NCCCN(CCOc3ccc(NS(C)(=O)=O)cc3)CCc3ccc(NS(C)(=O)=O)cc3)cc21)c1ccc(S(=O)(=O)[O-])cc1C5(C)C (configuration not stated)	160 nM	
CCNC(=O)Cc1ccc2c(c1)C(C)(C)C1C3C=C4C5=[N+](CCC4OC3CCN21)c1ccc(S(=O)(=O)[O-])cc1C5(C)C (configuration not stated)	> 1000 nM	
CC1(C)C2=C3C=C4C5=[N+](CCC4OC3CCN2c2ccc(CC(=O)NCCN(CCOc3ccc(NS(C)(=O)=O)cc3)CCc3ccc(NS(C)(=O)=O)cc3)cc21)c1ccc(S(=O)(=O)[O-])cc1C5(C)C (configuration not stated)	7300 nM	
CN(C)c1ccc2c(c1)Oc1cc(N(C)C)ccc1C21OC(=O)c2cc(C(=O)NCCCCCCN(CCOc3ccc(NS(C)(=O)=O)cc3)CCc3ccc(NS(C)(=O)=O)cc3)ccc21	89 nM	
CN(C)c1ccc2c(c1)Oc1cc(N(C)C)ccc1C21OC(=O)c2cc(C(=O)N(CCOc3ccc(NS(C)(=O)=O)cc3)CCc3ccc(NS(C)(=O)=O)cc3)ccc21	> 1000 nM	
CS(=O)(=O)Nc1ccc(CCN(CCCCCCNC(=O)c2ccc3c(c2)C(=O)OC32c3ccc(O)cc3Oc3cc(O)ccc32)CCOc2ccc(NS(C)(=O)=O)cc2)cc1	15 nM	
CS(=O)(=O)Nc1ccc(CCN(CCOc2ccc(NS(C)(=O)=O)cc2)C(=O)c2ccc3c(c2)C(=O)OC32c3ccc(O)cc3Oc3cc(O)ccc32)cc1	980 nM	
CCN1CCCc2cc3c(cc21)OC1=CC2=[N+](CCCC(=O)N(CCOc4ccc(NS(C)(=O)=O)cc4)CCc4ccc(NS(C)(=O)=O)cc4)CCCC2=CC1N3 (configuration not stated)	3.6 nM	
CC1(C)C2=C3C=C4C5=[N+](CCC4OC3CCN2c2ccc(CC(=O)NCCCCN(CCOc3ccc(NS(C)(=O)=O)cc3)CCc3ccc(NS(C)(=O)=O)cc3)cc21)c1ccc(S(=O)(=O)[O-])cc1C5(C)C (configuration not stated)	18 nM	
CC1(C)C2=C3C=C4C5=[N+](CCC4OC3CCN2c2ccc(CCC(=O)NCCCCCCN(CCOc3ccc(NS(C)(=O)=O)cc3)CCc3ccc(NS(C)(=O)=O)cc3)cc21)c1ccc(S(=O)(=O)[O-])cc1C5(C)C (configuration not stated)	19 nM	
CN(CCOc1ccc(NS(C)(=O)=O)cc1)CCc1ccc(NS(C)(=O)=O)cc1 [DOFETILIDE]		Papp B→A [2]: 14.3 ×10⁻⁶ cm/s; inhibition at 0.025 µM [4]: 80%; Papp A→B [3]: 15.7 ×10⁻⁶ cm/s

Source: ChEMBL document CHEMBL1145378 (J Med Chem, 2007)
